Measurements: patent US10925876B2, “Methods for using triazolo-pyrazinyl soluble guanylate cyclase activators in fibrotic disorders” (Merck Sharp & Dohme Corp., priority 2016, dated 2021)

What was measured:
[1] = system: Spontaneously hypertensive rats (SHR); experiment: Acute Efficacy in Spontaneously Hypertensive Rats (SHR), telemetry blood pressure; format: in vivo, rat; settings: single oral gavage
Summary of the method: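 Male SHR fitted with aortic telemetry transmitters and recovered 14 days; conscious blood pressure sampled 30 s every 10 min. Single oral gavage dose (vehicle 10% transcutol/20% Cremophor/70% water); hourly SBP change versus prior-day vehicle baseline, reported as maximum peak decrease.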

sGC α1/β1 heterodimer = molecular target: T1, sGC α1/β1 heterodimer (Homo sapiens, UniProt Q02108+Q02153); experiment: Cell-Based sGC Functional Assay (CASA Assay), cGMP generation in CHO-K1/sGC cells;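 also: reference Compound A is a published heme-dependent sGC activator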; settings: maximum cGMP production of Compound A set to 100% activation, read-out: % Act. (percent activation relative to Compound A)
T1 construct: expressed in transfected cells
T1 sequence (Q02108 1-690): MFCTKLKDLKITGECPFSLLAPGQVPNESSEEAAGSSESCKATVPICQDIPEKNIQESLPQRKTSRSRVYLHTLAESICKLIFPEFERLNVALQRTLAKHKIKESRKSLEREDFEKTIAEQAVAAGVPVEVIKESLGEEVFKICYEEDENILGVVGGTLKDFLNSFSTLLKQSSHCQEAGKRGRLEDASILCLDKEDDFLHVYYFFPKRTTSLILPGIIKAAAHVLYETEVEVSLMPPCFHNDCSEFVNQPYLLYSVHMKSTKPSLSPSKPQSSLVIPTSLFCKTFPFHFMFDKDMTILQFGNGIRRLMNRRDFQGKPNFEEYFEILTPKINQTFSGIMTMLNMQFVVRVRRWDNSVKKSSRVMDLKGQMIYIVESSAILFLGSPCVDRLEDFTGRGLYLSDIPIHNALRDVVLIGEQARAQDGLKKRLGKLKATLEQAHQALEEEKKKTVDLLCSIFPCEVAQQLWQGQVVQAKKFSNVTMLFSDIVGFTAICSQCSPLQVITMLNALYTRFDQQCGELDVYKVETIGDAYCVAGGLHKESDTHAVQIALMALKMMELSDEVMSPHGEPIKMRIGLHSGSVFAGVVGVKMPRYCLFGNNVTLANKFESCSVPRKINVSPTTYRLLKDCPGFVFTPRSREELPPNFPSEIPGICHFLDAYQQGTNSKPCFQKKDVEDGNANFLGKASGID
T1 sequence (Q02153 1-619): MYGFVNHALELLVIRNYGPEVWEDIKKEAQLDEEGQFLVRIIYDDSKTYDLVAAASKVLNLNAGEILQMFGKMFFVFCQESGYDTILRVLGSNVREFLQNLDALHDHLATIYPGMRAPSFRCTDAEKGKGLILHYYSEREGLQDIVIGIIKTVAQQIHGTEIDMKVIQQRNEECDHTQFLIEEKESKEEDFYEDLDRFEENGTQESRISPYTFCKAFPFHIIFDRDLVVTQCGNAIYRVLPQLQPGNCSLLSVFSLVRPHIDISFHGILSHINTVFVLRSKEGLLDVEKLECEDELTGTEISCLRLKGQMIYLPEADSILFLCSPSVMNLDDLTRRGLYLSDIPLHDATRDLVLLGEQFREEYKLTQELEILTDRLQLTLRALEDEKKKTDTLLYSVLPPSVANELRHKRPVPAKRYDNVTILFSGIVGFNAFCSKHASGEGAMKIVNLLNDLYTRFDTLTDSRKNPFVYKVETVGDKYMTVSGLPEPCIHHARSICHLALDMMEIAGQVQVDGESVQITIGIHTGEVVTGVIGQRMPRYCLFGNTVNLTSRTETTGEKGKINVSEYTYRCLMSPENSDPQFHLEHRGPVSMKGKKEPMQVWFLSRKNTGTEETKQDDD
Summary of the method: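 Intracellular cGMP quantified by HTRF competition after 1 h, 37 °C compound exposure, with or without 1 μM DETA-NO, in stable CHO-K1/sGC α1/β1 cells (4×10^5/mL; buffer with 0.5 mM IBMX, 5 mM MgCl2, 10 mM HEPES, 0.05% BSA; 2.5% DMSO). Activation normalized to reference Compound A maximum; 4P fit.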

| Emax (sGC α1/β1 heterodimer) [%] | SMILES | Maximum peak decrease of systolic blood pressure (SBP) in SHR, Cat. ([1]; P.O. 0.3 mpk) | Maximum peak decrease of systolic blood pressure (SBP) in SHR, Cat. ([1]; P.O. 1 mpk) | Maximum peak decrease of systolic blood pressure (SBP) in SHR, Cat. ([1]; P.O. 3 mpk) | Maximum peak decrease of systolic blood pressure (SBP) in SHR, Cat. ([1]; P.O. 0.1 mpk) |
| --- | --- | --- | --- | --- | --- |
| 151 | Nc1nc(-c2cn3ncnc3c(CCCC(F)(F)F)n2)nc2c1C(c1ncc(Cl)cn1)(C1CC1)C(=O)N2 (stereo not shown) [Example 41A, 4-amino-5-(5-chloropyrimidin-2-yl)-5-cyclopropyl-2-(8-(4,4,4-trifluorobutyl)-[1,2,4]triazolo[1,5-a]pyrazin-6-yl)-5H-pyrrolo[2,3-d]pyrimidin-6(7H)-one] | B (Category B=SBP in SHRs 20-40 mmHg) |  |  |  |
| 107 | CC1(c2ccc(Cl)cn2)C(=O)Nc2nc(-c3cn4ncnc4c(CCC(F)(F)C(F)(F)F)n3)nc(O)c21 (stereo not shown) [Example 120A, 5-(5-chloropyridin-2-yl)-4-hydroxy-5-methyl-2-(8-(3,3,4,4,4-pentafluorobutyl)-[1,2,4]triazolo[1,5-a]pyrazin-6-yl)-5H-pyrrolo[2,3-d]pyrimidin-6(7H)-one] |  | B (Category B=SBP in SHRs 20-40 mmHg) |  |  |
| 117 | CCCc1nc(-c2nc(O)c3c(n2)NC(=O)C3(C)c2ccc(Cl)c(F)c2)cn2ncnc12 (stereo not shown) [Example 166B, 5-(4-chloro-3-fluorophenyl)-4-hydroxy-5-methyl-2-(8-propyl-[1,2,4]triazolo[1,5-a]pyrazin-6-yl)-5H-pyrrolo[2,3-d]pyrimidin-6(7H)-one] |  |  | B (Category B=SBP in SHRs 20-40 mmHg) |  |
| 91 | Nc1nc(-c2cn3ncnc3c(CCCC(F)(F)F)n2)nc2c1C(c1ccc(O)cn1)(C1CC1)C(=O)N2 (stereo not shown) [Example 112A, 4-amino-5-cyclopropyl-5-(5-hydroxypyridin-2-yl)-2-(8-(4,4,4-trifluorobutyl)-[1,2,4]triazolo[1,5-a]pyrazin-6-yl)-5H-pyrrolo[2,3-d]pyrimidin-6(7H)-one] |  |  | A (Category A=SBP in SHRs <20 mmHg) |  |
| 118 | Nc1nc(-c2cn3ncnc3c(CCCC(F)(F)F)n2)nc2c1C(c1ccccn1)(C1CC1)C(=O)N2 (stereo not shown) [Example 115A, 4-amino-5-cyclopropyl-5-(pyridin-2-yl)-2-(8-(4,4,4-trifluorobutyl)-[1,2,4]triazolo[1,5-a]pyrazin-6-yl)-5H-pyrrolo[2,3-d]pyrimidin-6(7H)-one] |  | B (Category B=SBP in SHRs 20-40 mmHg) |  |  |
| 121 | CCCCc1nc(-c2nc(N)c3c(n2)NC(=O)[C@@]3(C)c2ccc(F)cc2)cn2ncnc12 [Example 60A, (S)-4-amino-2-(8-butyl-[1,2,4]triazolo[1,5-a]pyrazin-6-yl)-5-(4-fluorophenyl)-5-methyl-5,7-dihydro-6H-pyrrolo[2,3-d]pyrimidin-6-one] | C (Category C=SBP in SHRs >40 mmHg) |  |  |  |
| 75 | CC1(c2ccc(C#N)cn2)C(=O)Nc2nc(-c3cn4ncnc4c(CCC(F)(F)C(F)(F)F)n3)nc(N)c21 (stereo not shown) [Example 18A] | C (Category C=SBP in SHRs >40 mmHg) |  |  |  |
| 70 | CC1(c2ccc(Cl)cc2)C(=O)Nc2nc(-c3cn4ncnc4c(CCC(F)(F)F)n3)nc(O)c21 (stereo not shown) [Example 152A, 5-(4-chlorophenyl)-4-hydroxy-5-methyl-2-(8-(3,3,3-trifluoropropyl)-[1,2,4]triazolo[1,5-a]pyrazin-6-yl)-5H-pyrrolo[2,3-d]pyrimidin-6(7H)-one] |  |  | B (Category B=SBP in SHRs 20-40 mmHg) |  |
| 100 | CC1(c2ccc(F)cn2)C(=O)Nc2nc(-c3cn4ncnc4c(CCC(F)(F)C(F)(F)F)n3)nc(O)c21 (stereo not shown) [Example 122B, 5-(5-fluoropyridin-2-yl)-4-hydroxy-5-methyl-2-(8-(3,3,4,4,4-pentafluorobutyl)-[1,2,4]triazolo[1,5-a]pyrazin-6-yl)-5H-pyrrolo[2,3-d]pyrimidin-6(7H)-one] |  | B (Category B=SBP in SHRs 20-40 mmHg) |  |  |
| 117 | Nc1nc(-c2cn3ncnc3c(CCCC(F)(F)F)n2)nc2c1C(c1nnc(C3CC3)o1)(C1CC1)C(=O)N2 (stereo not shown) [Example 104A, 4-amino-5-cyclopropyl-5-(5-cyclopropyl-1,3,4-oxadiazol-2-yl)-2-(8-(4,4,4-trifluorobutyl)-[1,2,4]triazolo[1,5-a]pyrazin-6-yl)-5H-pyrrolo[2,3-d]pyrimidin-6(7H)-one] |  |  | C (Category C=SBP in SHRs >40 mmHg) |  |
| 232 | CCCCc1nc(-c2nc(O)c3c(n2)NC(=O)C3(C)c2ccc(F)c(F)c2)cn2ncnc12 (stereo not shown) [Example 158B, 2-(8-butyl-[1,2,4]triazolo[1,5-a]pyrazin-6-yl)-5-(3,4-difluorophenyl)-4-hydroxy-5-methyl-5H-pyrrolo[2,3-d]pyrimidin-6(7H)-one] | C (Category C=SBP in SHRs >40 mmHg) |  |  |  |
| 137 | CC1(c2ccc(Cl)cc2)C(=O)Nc2nc(-c3cn4ncnc4c(CCCC(F)(F)F)n3)nc(O)c21 (stereo not shown) [Example 142A, 5-(4-chlorophenyl)-4-hydroxy-5-methyl-2-(8-(4,4,4-trifluorobutyl)-[1,2,4]triazolo[1,5-a]pyrazin-6-yl)-5H-pyrrolo[2,3-d]pyrimidin-6(7H)-one] | B (Category B=SBP in SHRs 20-40 mmHg) |  |  |  |
| 176 | CCCCc1nc(-c2nc(N)c3c(n2)NC(=O)C3(c2nnc(C(F)(F)F)o2)C2CC2)cn2ncnc12 (stereo not shown) [Example 105A, 4-amino-2-(8-butyl-[1,2,4]triazolo[1,5-a]pyrazin-6-yl)-5-cyclopropyl-5-(5-(trifluoromethyl)-1,3,4-oxadiazol-2-yl)-5H-pyrrolo[2,3-d]pyrimidin-6(7H)-one] | B (Category B=SBP in SHRs 20-40 mmHg) |  |  |  |
| 122 | CC1(c2ccccc2)C(=O)Nc2nc(-c3cn4ncnc4c(CCC(F)(F)C(F)(F)F)n3)nc(N)c21 (stereo not shown) [Example 12B, 4-amino-5-methyl-2-(8-(3,3,4,4,4-pentafluorobutyl)-[1,2,4]triazolo[1,5-a]pyrazin-6-yl)-5-phenyl-5H-pyrrolo[2,3-d]pyrimidin-6(7H)-one] |  |  |  | B (Category B=SBP in SHRs 20-40 mmHg) |
| 81 | CCCc1nc(-c2nc(N)c3c(n2)NC(=O)C3(c2ccc(C(F)(F)F)cn2)C2CC2)cn2ncnc12 (stereo not shown) [Example 56A, 4-amino-5-cyclopropyl-2-(8-propyl-[1,2,4]triazolo[1,5-a]pyrazin-6-yl)-5-(5-(trifluoromethyl)pyridin-2-yl)-5H-pyrrolo[2,3-d]pyrimidin-6(7H)-one] |  |  | B (Category B=SBP in SHRs 20-40 mmHg) |  |
| 177 | CCCCc1nc(-c2nc(N)c3c(n2)NC(=O)C3(C)c2ccc(F)cn2)cn2ncnc12 (stereo not shown) [Example 61B, 4-amino-2-(8-butyl-[1,2,4]triazolo[1,5-a]pyrazin-6-yl)-5-(5-fluoropyridin-2-yl)-5-methyl-5H-pyrrolo[2,3-d]pyrimidin-6(7H)-one] | C (Category C=SBP in SHRs >40 mmHg) |  |  |  |
| 83 | CC1(c2ccc(C(F)(F)F)cn2)C(=O)Nc2nc(-c3cn4ncnc4c(CCC(F)(F)F)n3)nc(N)c21 (stereo not shown) [Example 78B, 4-amino-5-methyl-5-(5-(trifluoromethyl)pyridin-2-yl)-2-(8-(3,3,3-trifluoropropyl)-[1,2,4]triazolo[1,5-a]pyrazin-6-yl)-5H-pyrrolo[2,3-d]pyrimidin-6(7H)-one] |  |  | B (Category B=SBP in SHRs 20-40 mmHg) |  |
